# Assay results published in patent publication US9873702B2, “Heterocyclic compounds as biogenic amine transport modulators” (Southern Research Institute, priority 2014, dated 2018).
# Tests used:
# [1] = target: dopamine transporter (DAT) (Rattus norvegicus, UniProt P23977); assay: Dopamine reuptake ([^3H]dopamine uptake) inhibition in rat brain synaptosomes; conditions: for IC50: DA Uptake EC50 (nM ± SD), rat caudate synaptosomes, 5 nM [^3H]dopamine, 15 min, 25° C., three experiments pooled; for Emax: read-out: DA Uptake Emax (% I ± SD)
# Chain of dopamine transporter (DAT) (P23977 whole entry): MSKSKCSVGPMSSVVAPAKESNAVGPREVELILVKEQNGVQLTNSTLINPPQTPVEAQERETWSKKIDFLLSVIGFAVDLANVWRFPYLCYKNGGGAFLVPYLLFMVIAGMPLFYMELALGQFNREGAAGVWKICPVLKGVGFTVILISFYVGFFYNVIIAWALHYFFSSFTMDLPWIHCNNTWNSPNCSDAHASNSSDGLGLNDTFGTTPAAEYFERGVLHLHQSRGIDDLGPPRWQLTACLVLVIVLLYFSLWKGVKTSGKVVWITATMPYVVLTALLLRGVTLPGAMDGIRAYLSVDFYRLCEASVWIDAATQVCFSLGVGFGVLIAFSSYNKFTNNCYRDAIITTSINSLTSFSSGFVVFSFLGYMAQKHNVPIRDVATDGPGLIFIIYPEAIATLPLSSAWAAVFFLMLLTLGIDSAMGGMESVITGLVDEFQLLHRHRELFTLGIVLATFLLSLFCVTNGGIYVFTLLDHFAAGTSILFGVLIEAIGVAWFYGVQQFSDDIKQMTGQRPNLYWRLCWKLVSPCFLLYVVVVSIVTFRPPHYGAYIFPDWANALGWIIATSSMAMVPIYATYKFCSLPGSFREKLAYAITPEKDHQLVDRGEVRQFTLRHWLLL
# Description: Freshly removed caudate was homogenized in 10% ice-cold sucrose with 12 strokes of a hand-held Potter-Elvehj em homogenizer followed by centrifugation at 1000×g for 10 min. The supernatants were saved on ice and used immediately. Transporter activity was assessed using 5 nM [^3H]dopamine. […] The selectivity of the uptake assay for dopamine active transporter (DAT) was optimized by including 100 nM citalopram and 100 nM desipramine as blockers of serotonin transporter (SERT) and norepinephrine transporter (NET) in the sucrose solution and assay buffer. Uptake inhibition assays were conducted at 25° C. and were initiated by adding 100 μl of tissue to 900 μL assay buffer containing test drug and [^3H]dopamine. Test drugs were diluted in assay buffer containing 1 mg/mL bovine serum albumin. Nonspecific uptake was measured by incubating in the presence of 10 μM indatraline. The reactions were stopped after 15 minutes by rapid vacuum filtration with a cell harvester (BRANDEL) over GF/B filters (Whatman) presoaked in wash buffer maintained at 25° C. (10 mM Tris-HCl, pH 7.4/150 mM NaCl). Filters were rinsed with 6 mL wash buffer and retained tritium was quantified by a MicroBeta liquid scintillation counter (PerkinElmer) after overnight extraction in 0.6 mL of liquid scintillation cocktail (Cytoscint, ICN). The data from three experiments were pooled and fit to a dose-response curve equation (using Kaleidagraph), to yield an Emax and EC50 value.
# The data from three experiments were pooled and fit to a dose-response curve equation (using KaleidaGraph; Synergy Software, Reading, Pa.) to yield an Emax and IC50 value.
structure (smiles),measurement,setting,value
"CC(C)(C)OC(=O)N1CCCc2ccc(-c3nc(NCC(c4ccccc4)c4ccccc4)c4ccccc4n3)cc21 [compound 71, Tert-Butyl 7-(4-((2,2-Diphenylethyl)Amino)Quinazolin-2-yl)-3,4-Dihydroquinoline-1(2H)-Carboxylate]",melting point,,89 °C
same,IC50,[1],890 nM
same,Emax,[1],< 100%
"c1ccc(C(CNc2nc(-c3ccc4[nH]nnc4c3)nc3ccccc23)c2ccccc2)cc1 [compound 63, 2-(1H-Benzo[D][1,2,3]Triazol-5-yl)-N-(2,2-Diphenylethyl)Quinazolin-4-Amine]",melting point,,220 °C
same,IC50,[1],192 ± 37 nM
same,Emax,[1],72 ± 3%
"CC(C)(C)OC(=O)n1cc(-c2nc(NCC(c3ccccc3)c3ccccc3)c3ccccc3n2)c2cccnc21 [compound 73, Tert-Butyl 3-(4-((2,2-Diphenylethyl)Amino)Quinazolin-2-yl)-1H-Pyrrolo[2,3-B]Pyridine-1-Carboxylate]",melting point,,105 °C
same,IC50,[1],1310 nM
same,Emax,[1],< 100%
"Cc1cc2nccn2cc1-c1nc(NCC(c2ccncc2)c2ccc[nH]2)c2ccccc2n1 (stereo not drawn) [compound 185, 2-(7-Methylimidazo[1,2-A]Pyridin-6-yl)-N-(2-(Pyridin-4-yl)-2-(1H-Pyrrol-2-yl)Ethyl)Quinazolin-4-Amine]",melting point,,214 to 216 °C
same,IC50,[1],11 ± 2 nM
same,Emax,[1],71 ± 2%
"c1ccc(CNc2ncc(-c3nc(NCC(c4ccccc4)c4ccccc4)c4ccccc4n3)cn2)cc1 [compound 46, 2-(2-(Benzylamino)Pyrimidin-5-yl)-N-(2,2-Diphenylethyl)Quinazolin-4-Amine]",melting point,,184 °C
same,IC50,[1],544 ± 248 nM
same,Emax,[1],60 ± 6%
"CC(C)(C)OC(=O)N[C@H](CNc1nc(-c2ccc3nccn3c2)nc2ccccc12)c1ccccc1 [compound 146, (S)-Tert-Butyl (2-((2-(Imidazo[1,2-A]Pyridin-6-yl)Quinazolin-4-yl)Amino)-1-Phenylethyl)Carbamate]",melting point,,252 to 254 °C
same,IC50,[1],414 ± 44 nM
same,Emax,[1],65 ± 1%
"Cc1cc2nccn2cc1-c1nc(NCC(C)(c2ccccc2)c2ccccc2)c2ccccc2n1 [compound 178, N-(2,2-Diphenylpropyl)-2-(7-Methylimidazo[1,2-A]Pyridin-6-yl)Quinazolin-4-Amine]",melting point,,275 to 277 °C
same,IC50,[1],5 ± 1.1 nM
same,Emax,[1],76 ± 3%
"Cc1cc2nccn2cc1-c1nc(NCCc2ccncc2)c2ccccc2n1 [compound 181, 2-(7-Methylimidazo[1,2-A]Pyridin-6-yl)-N-(2-(Pyridin-4-yl)Ethyl)Quinazolin-4-Amine]",melting point,,234 to 236 °C
same,IC50,[1],85 ± 5 nM
same,Emax,[1],72 ± 1%
"c1ccc(C2CN(c3nc(-c4cnc5nccn5c4)nc4ccccc34)Cc3ccccc32)cc1 (stereo not drawn) [compound 143, 2-(Imidazo[1,2-A]Pyrimidin-6-yl)-4-(4-Phenyl-3,4-Dihydroisoquinolin-2(1H)-yl)Quinazoline]",melting point,,104 to 106 °C
same,IC50,[1],502 ± 84 nM
same,Emax,[1],73 ± 3%
"c1ccc(C(CNc2nc(-c3cnc(N4CCCC4)nc3)nc3ccccc23)c2ccccc2)cc1 [compound 37, N-(2,2-Diphenylethyl)-2-(2-(Pyrrolidin-1-yl)Pyrimidin-5-yl)Quinazolin-4-Amine]",melting point,,208 °C
same,IC50,[1],121 ± 27 nM
same,Emax,[1],66 ± 3%
"c1ccc(C(CNc2nc(-c3ccc4ncsc4c3)nc3ccccc23)c2ccccc2)cc1 [compound 70, 2-(Benzo [D]Thiazol-6-yl)-N-(2,2-Diphenylethyl)Quinazolin-4-Amine]",melting point,,198 °C
same,IC50,[1],45 ± 15 nM
same,Emax,[1],67 ± 4%
"CC(C)C(CNc1nc(N2CCc3[nH]ccc3C2)nc2ccccc12)c1ccccc1 (stereo not drawn) [compound 201, 2-(6,7-Dihydro-1H-Pyrrolo[3,2-c]Pyridin-5(4H)-yl)-N-(3-Methyl-2-Phenylbutyl)Quinazolin-4-Amine]",melting point,,221 to 223 °C
same,IC50,[1],7.2 ± 2.6 nM
same,Emax,[1],88 ± 5%
"c1ccc(C(CNc2nc(-c3cccc4cccnc34)nc3ccccc23)c2ccccc2)cc1 [compound 141, N-(2,2-Diphenylethyl)-2-(Quinolin-8-yl)Quinazolin-4-Amine]",melting point,,102 to 104 °C
same,IC50,[1],45 ± 7 nM
same,Emax,[1],98 ± 3%
"Cn1cc2c(-c3nc(NCC(c4ccccc4)c4ccccc4)c4ccccc4n3)cccc2n1 [compound 68, N-(2,2-Diphenylethyl)-2-(2-Methyl-2H-Indazol-4-yl)Quinazolin-4-Amine]",melting point,,121 °C
same,IC50,[1],195 ± 70 nM
same,Emax,[1],55 ± 4%
"c1ccc(C(CNc2nc(-c3ccc4[nH]ccc4c3)nc3ccccc23)c2cccnc2)cc1 (stereo not drawn) [compound 130, 2-(1H-Indol-5-yl)-N-(2-Phenyl-2-(Pyridin-3-yl)Ethyl)Quinazolin-4-Amine]",melting point,,109 to 111 °C
same,IC50,[1],40 ± 5 nM
same,Emax,[1],74 ± 2%
"COc1cc2nc(-c3cncnc3)nc(NCC(c3ccccc3)c3ccccc3)c2cc1OC [compound 25, N-(2,2-Diphenylethyl)-6,7-Dimethoxy-2-(Pyrimidin-5-yl)Quinazolin-4-Amine]",melting point,,93 °C
same,IC50,[1],1090 nM
same,Emax,[1],< 100%
"c1cncc(C(CNc2nc(-c3ccc4nccn4c3)nc3ccccc23)c2ccc[nH]2)c1 (stereo not drawn) [compound 155, 2-(Imidazo[1,2-A]Pyridin-6-yl)-N-(2-(pyridin-3-yl)-2-(1H-Pyrrol-2-yl)Ethyl)Quinazolin-4-Amine]",melting point,,121 to 124 °C
same,IC50,[1],175 ± 65 nM
same,Emax,[1],77 ± 6%
"CC(CNc1nc(-c2ccc3nccn3c2)nc2ccccc12)(c1ccccc1)c1ccccc1 [compound 164, N-(2,2-Diphenylpropyl)-2-(Imidazo[1,2-A]Pyridin-6-yl)Quinazolin-4-Amine]",melting point,,107 to 109 °C
same,IC50,[1],6.4 ± 1.6 nM
same,Emax,[1],76 ± 3%
"CN(C)c1ccc(-c2nc(NCCC(c3ccccc3)c3ccccc3)c3ccccc3n2)cn1 [compound 93, 2-(6-(Dimethylamino)Pyridin-3-yl)-N-(3,3-Diphenylpropyl)Quinazolin-4-Amine]",melting point,,195 °C
same,IC50,[1],29 ± 4 nM
same,Emax,[1],76 ± 2%
"COc1ccc(C(CNc2nc(-c3ccc4nccn4c3)nc3ccccc23)C2(O)CCCCC2)cc1 (stereo not drawn) [compound 153, 1-(2-((2-(Imidazo[1,2-A]Pyridin-6-yl)Quinazolin-4-yl)Amino)-1-(4-Methoxyphenyl)ethyl)Cyclohexanol]",melting point,,247 to 249 °C
same,IC50,[1],41 ± 8 nM
same,Emax,[1],70 ± 2%
"c1ccc(C(CCNc2nc(-c3cncnc3)nc3ccccc23)c2ccccc2)cc1 [compound 22, N-(3,3-Diphenylpropyl)-2-(Pyrimidin-5-yl)Quinazolin-4-Amine]",melting point,,154 °C
same,IC50,[1],750 nM
same,Emax,[1],100%
"COC(CNc1nc(-c2cn3ccnc3cc2C)nc2ccccc12)c1ccccc1 (stereo not drawn) [compound 187, N-(2-Methoxy-2-phenylethyl)-2-(7-methylimidazo[1,2-a]pyridin-6-yl)quinazolin-4-amine]",melting point,,215 to 218 °C
same,IC50,[1],5.7 ± 1.6 nM
same,Emax,[1],74 ± 3%
"Cn1ccc2cc(-c3nc(NCC(c4ccccc4)c4ccccc4)c4ccccc4n3)ccc21 [compound 77, N-(2,2-Diphenylethyl)-2-(1-Methyl-1H-Indol-5-yl)Quinazolin-4-Amine]",melting point,,222 °C
same,IC50,[1],28 ± 5 nM
same,Emax,[1],69 ± 2%
"CC(C)C(CNc1nc(-c2ccc3nccn3c2)nc2ccccc12)c1ccccc1 (stereo not drawn) [compound 168, 2-(Imidazo[1,2-A]Pyridin-6-yl)-N-(3-Methyl-2-Phenylbutyl)Quinazolin-4-Amine]",melting point,,195 to 196 °C
same,IC50,[1],24 ± 5 nM
same,Emax,[1],75 ± 2%
"c1ccc(OC(CNc2nc(-c3ccc4nccn4c3)nc3ccccc23)c2ccccc2)cc1 (stereo not drawn) [compound 175, 2-(Imidazo[1,2-A]Pyridin-6-yl)-N-(2-Phenoxy-2-Phenylethyl)Quinazolin-4-Amine]",melting point,,286 to 288 °C
same,IC50,[1],106 ± 19 nM
same,Emax,[1],68 ± 2%
"c1ccc2c(NCC(c3ccncc3)c3ccncc3)nc(-c3ccc4nccn4c3)nc2c1 [compound 158, N-(2,2-Di(Pyridin-4-yl)Ethyl)-2-(Imidazo[1,2-A]Pyridin-6-yl)Quinazolin-4-Amine]",melting point,,192 to 196 °C
same,IC50,[1],66 ± 10 nM
same,Emax,[1],68 ± 2%
"c1ccc(C(CNc2nc(-c3ccc4ncccc4c3)nc3ccccc23)c2ccccc2)cc1 [compound 50, N-(2,2-Diphenylethyl)-2-(Quinolin-6-yl)Quinazolin-4-Amine]",melting point,,92 °C
same,IC50,[1],26 ± 7 nM
same,Emax,[1],68 ± 3%
"c1ccc(C(CNc2nc(-c3ccc4cc[nH]c4c3)nc3ccccc23)c2ccccc2)cc1 [compound 31, N-(2,2-Diphenylethyl)-2-(1H-indol-6-yl)Quinazolin-4-Amine]",melting point,,102 °C
same,IC50,[1],89 ± 23 nM
same,Emax,[1],81 ± 4%
"Cc1cc2nccn2cc1-c1nc(NC(CCc2ccccc2)c2ccccc2)c2ccccc2n1 (stereo not drawn) [compound 167, N-(1,3-Diphenylpropyl)-2-(7-Methylimidazo[1,2-A]Pyridin-6-yl)Quinazolin-4-Amine]",melting point,,119 to 120 °C
same,IC50,[1],9.4 ± 2.3 nM
same,Emax,[1],76 ± 3%
"Oc1nc2cc(-c3nc(NCC(c4ccccc4)c4ccccc4)c4ccccc4n3)ccc2[nH]1 [compound 79, 5-(4-((2,2-Diphenylethyl)Amino)Quinazolin-2-yl)-1H-Benzo[D]Imidazol-2-ol]",melting point,,215 °C
same,IC50,[1],51 ± 14 nM
same,Emax,[1],94 ± 4%
"Cn1cnc2ccc(-c3nc(NCC(c4ccccc4)c4ccccc4)c4ccccc4n3)cc21 [compound 64, N-(2,2-Diphenylethyl)-2-(1-Methyl-1H-Benzo [D]Imidazol-6-yl)Quinazolin-4-Amine]",melting point,,248 °C
same,IC50,[1],19 ± 3 nM
same,Emax,[1],75 ± 2%
"c1ccc(C(CNc2nc(N3Cc4ccccc4C3)nc3ccccc23)c2ccccc2)cc1 [compound 189, N-(2,2-Diphenylethyl)-2-(Isoindolin-2-yl)Quinazolin-4-Amine]",melting point,,293 to 295 °C
same,IC50,[1],24 ± 7 nM
same,Emax,[1],83 ± 4%
